Results on 15 compounds are retold here after patent US7557099B2, “Pyrrolobenzodiazepines as key intermediates in the synthesis of dimeric cytotoxic pyrrolobenzodiazepines” (Spirogen Limited, priority 2004, dated 2009).

Like-named read-outs stand apart in the source and are kept apart here.

In assay [1] the test system is linear pBR322 DNA. As to the kind of experiment: DNA cross-linking, electrophoretic assay (XL50). It counts as biochemical. The following applies: concentration giving 50% cross-linked plasmid DNA; 2 hours, 37° C., pH 7.2. The method, then: The extent of DNA cross-linking induced by each PBD dimer was determined using the electrophoretic assay method of Hartley, et al. (Hartley, J. A., Berardini, M. D., and Souhami, R. L. (1991) Anal. Biochem. 193, 131-134) based on the principle that, following complete denaturation of linear pBR322 DNA (˜4,300 bp) to the single-stranded (SS) form, an interstrand cross-link results in renaturation to double-stranded (DS) in a neutral gel.
Closed-circular DNA was linearized with HindIII, then dephosphorylated and finally 5′-singly end-labelled using [γ^32P]-ATP and polynucleotide kinase. Reactions containing 30-40 ng of DNA and the test compound were carried out in aqueous TEOA (25 mM triethanolamine, 1 mM EDTA, pH 7.2) buffer at 37° C. in a final volume of 50 μl for 2 hours. Reactions were terminated by addition of an equal volume of stop solution (0.6 M NaOAc, 20 mM EDTA, 100 μg/ml tRNA) followed by precipitation with ethanol. Following centrifugation, the supernatant was discarded and the pellet dried by lyophilization. Samples were re-suspended in 10 μl of strand separation buffer (30% DMSO, 1 mM EDTA, 0.04% bromophenol blue and 0.04% xylene cylanol) and denatured by heating to 90° C. for 2.5 min, followed by immersion in an ice/water bath. Control non-denatured samples were re-suspended in 10 μl of non-denaturing buffer solution (0.6% sucrose, 0.04% bromophenol blue in aqueous TAE buffer [40 mM Tris, 20 mM acetic acid, 2 mM EDTA, pH 8.1]) and loaded directly onto the gel for comparison.
Electrophoresis was carried out for 14-16 h at 40 V using a 0.8% submerged agarose gel (20×25×0.5 cm) in TAE buffer. Gels were dried under vacuum for 2 hour at 80° C. onto one layer each of Whatman 3MM and DE8I filter papers using a BioRad 583 gel dryer. Autoradiographs were obtained after exposure of Hyperfilm-MP film (Amersham plc, U.K.) to the dried gel for either 4 hour with a screen (or over night, without a screen, to obtain a sharper image). Film bands were quantitated using a BioRad GS-670 imaging laser densitometer. Percentage cross-linking was calculated by measuring the total DNA in each lane (summed density for the double-stranded [DS] and single-stranded [SS] bands) relative to the amount of cross-linked DNA (density of DS band alone). A dose-response curve was derived by plotting drug concentration against the determined percentage level of cross-linked DNA which was then analysed to determine the concentration of test compound that results in 50% cross-linked plasmid DNA (XL50).

Assay [2] has as its system K562 human chronic myeloid leukaemia cells. The assay can be described thus: In vitro cytotoxicity, K562 cells, MTT assay. It counts as cell-based. The method, then:
K562 human chronic myeloid leukaemia cells were maintained in RPM1 1640 medium supplemented with 10% fetal calf serum and 2 mM glutamine at 37° C. in a humidified atmosphere containing 5% CO2 and were incubated with a specified dose of drug for 1 hour or 96 hours at 37° C. in the dark. The incubation was terminated by centrifugation (5 min, 300 g) and the cells were washed once with drug-free medium. Following the appropriate drug treatment, the cells were transferred to 96-well microtiter plates (10^4 cells per well, 8 wells per sample). Plates were then kept in the dark at 37° C. in a humidified atmosphere containing 5% CO2. The assay is based on the ability of viable cells to reduce a yellow soluble tetrazolium salt, 3-(4,5-dimethylthiazol-2-yl)-2,5-diphenyl-2H-tetrazolium bromide (MTT, Aldrich-Sigma), to an insoluble purple formazan precipitate. Following incubation of the plates for 4 days (to allow control cells to increase in number by approximately 10 fold), 20 μL of MTT solution (5 mg/mL in phosphate-buffered saline) was added to each well and the plates further incubated for 5 hours. The plates were then centrifuged for 5 minutes at 300 g and the bulk of the medium pipetted from the cell pellet leaving 10-20 μL per well. DMSO (200 μL) was added to each well and the samples agitated to ensure complete mixing. The optical density was then read at a wavelength of 550 nm on a Titertek Multiscan ELISA plate reader, and a dose-response curve was constructed. For each curve, an IC50 value was read as the dose required to reduce the final optical density to 50% of the control value.
In general terms: Tetrazolium dyes change colour on reduction, which living cells bring about.

The test system of assay [3] is approximately 60 human tumour cell lines. The assay can be described thus: NCI 60 cell screen, SRB assay. It counts as cell-based. The following applies: 48 hour continuous exposure. On the procedure:
The National Cancer Institute (NCI), Bethesda, Md., USA has available an in vitro cytotoxicity screen which consists of approximately 60 human tumour cell lines against which compounds are tested at a minimum of five concentrations each differing 10-fold. A 48 hour continuous exposure protocol is used, where cell viability or growth is estimated with an SRB protein assay.
The test compounds were evaluated against approximately 60 human tumour cell lines. The NCI screening procedures were described in detail by Monks and co-workers (Monks, A et al., Journal of the National Cancer Institute, 1991, 83, 757). Briefly, cell suspensions were diluted according to the particular cell type and the expected target cell density (5000-40,000 cells per well based on cell growth characteristics), and added by pipette (100 μL) into 96-well microtitre plates. The cells were allowed a preincubation period of 24 hours at 37° C. for stabilisation. Dilutions at twice the intended test concentration were added at time zero in 100 μL aliquots to the wells. The test compounds were evaluated at five 10-fold dilutions (10^−4, 10^−5, 10^−6, 10^−7 and 10^−[…]). The test compounds were incubated for 48 hours in 5% CO2 atmosphere and 100% humidity. The cells were then assayed using the sulphorhodamine B assay. A plate reader was used to read the optical densities and a microcomputer processed the readings into GI50 values (in Moles), which is the dosage required to limit cell growth to 50%.

Setting [4] is: Homo sapiens, 1 hr exposure, read-out: IC50 1 hr exposure.
Where [5] appears, read: Homo sapiens, 96 hr exposure, sub-table of 16e-j, read-out: IC50 96 hr exposure.

Regarding `COc1ccc2c(c1)C(=O)N1CCC(OCCCCCOC3CCN4C(=O)c5cc(OC)ccc5N=C[C@@H]34)[C@@H]1C=N2` (stereo partly drawn) [Compound 16c, 1,1′-[(Pentane-1,5-diyl)dioxy]bis[(11aS)-7-methoxy-1,2,3,11a-tetrahydro-5H-pyrrolo[2,1-c][1,4]benzodiazepine-5-one]], the EC50 in assay [1] is 0.07 µM. In assay [2] (setting [4]), the IC50 was determined as 0.5 µM. The compound further registered a GI50 in assay [3] (Homo sapiens) of 0.015 µM.

As for `COc1ccc2c(c1)C(=O)N1CCC(OCCCCCCOC3CCN4C(=O)c5cc(OC)ccc5N=C[C@@H]34)[C@@H]1C=N2` (stereo partly drawn) [Compound 16d, 1,1′-[(Hexane-1,6-diyl)dioxy]bis[(11aS)-7-methoxy-1,2,3,11a-tetrahydro-5H-pyrrolo[2,1-c][1,4]benzodiazepine-5-one]], it took 0.75 µM to reach a half-maximal effect in assay [1] (EC50). Moreover, in assay [2] (setting [4]), the IC50 was determined as 1 µM. The same compound displayed a GI50 in assay [3] (Homo sapiens) of 0.31 µM.

In assay [1], `COc1ccc2c(c1)C(=O)N1CCC(OCCCCOC3CCN4C(=O)c5cc(OC)ccc5N=C[C@@H]34)[C@@H]1C=N2` (stereo partly drawn) [Compound 16b, 1,1′-[(Butane-1,4-diyl)dioxy]bis[(11aS)-7-methoxy-1,2,3,11a-tetrahydro-5H-pyrrolo[2,1-c][1,4]benzodiazepine-5-one]] gave an EC50 of 1 µM. The IC50 in assay [2] (setting [4]) amounted to 2.5 µM. In assay [3] (Homo sapiens), this compound returned a GI50 of 2.51 µM.

For `COc1ccc2c(c1)N=C[C@H]1C(OCCCCCCCCCCCOC3CCN4C(=O)c5ccc(OC)cc5N=C[C@@H]34)CCN1C2=O` (stereo partly drawn) [Compound 9i, 1,1′-[(Undecane-1,11-diyl)dioxy]bis[(11aS)-8-methoxy-1,2,3,11a-tetrahydro-5H-pyrrolo[2,1-c][1,4]benzodiazepine-5-one]], the EC50 in assay [1] came out at 0.19 µM. The IC50 in assay [2] (setting [4]) amounted to 9 µM. This compound also showed a GI50 in assay [3] (Homo sapiens) of 0.57 µM.

`COc1cc2c(cc1OCCCCCOc1cc3c(cc1OC)N=C[C@@H]1CCCN1C3=O)C(=O)N1CCC[C@H]1C=N2` [Compound 9c, 1,11-[(Pentane-1,5-diyl)dioxy]bis[(11aS)-8-methoxy-1,2,3,11a-tetrahydro-5H-pyrrolo[2,1-c][1,4]benzodiazepine-5-one]]: in assay [2] (1 hr exposure, read-out: IC50 1 hr exposure), the IC50 is more than 30 µM. Also, in assay [3], the GI50 was determined as 10.2 µM.

With `COc1ccc2c(c1)N=C[C@H]1C(OCCCOC3CCN4C(=O)c5ccc(OC)cc5N=C[C@@H]34)CCN1C2=O` (stereo partly drawn) [Compound 9a, 1,1′-[(Propane-1,3-diyl)dioxy]bis[(11aS)-8-methoxy-1,2,3,11a-tetrahydro-5H-pyrrolo[2,1-c][1,4]benzodiazepine-5-one]], the EC50 in assay [1] is more than 100 µM. For the same compound, the IC50 in assay [2] (setting [4]) was more than 30 µM. The compound also showed a GI50 in assay [3] (Homo sapiens) of 8.91 µM.

For `COc1ccc2c(c1)C(=O)N1CCC(OCCCCCCCCCCCCOC3CCN4C(=O)c5cc(OC)ccc5N=C[C@@H]34)[C@@H]1C=N2` (stereo partly drawn) [Compound 16j, 1,1′-[(Dodecane-1,12-diyl)dioxy]bis[(11aS)-7-methoxy-1,2,3,11a-tetrahydro-5H-pyrrolo[2,1-c][1,4]benzodiazepine-5-one]], in assay [2] (setting [5]), the IC50 turned out to be 0.645 µM. The compound further showed a GI50 in assay [3] (Homo sapiens) of 0.15 µM.

On to `COc1ccc2c(c1)N=C[C@H]1C(OCCCCCCOC3CCN4C(=O)c5ccc(OC)cc5N=C[C@@H]34)CCN1C2=O` (stereo partly drawn) [Compound 9d, 1,1′-[(Hexane-1,6-diyl)dioxy]bis[(11aS)-8-methoxy-1,2,3,11a-tetrahydro-5H-pyrrolo[2,1-c][1,4]benzodiazepine-5-one]], for which, in assay [2] (setting [4]), the IC50 is more than 30 µM. In assay [3] (Homo sapiens), halving of growth (GI50) required 4 µM.

With `COc1ccc2c(c1)C(=O)N1CCC(OCCCCCCCCOC3CCN4C(=O)c5cc(OC)ccc5N=C[C@@H]34)[C@@H]1C=N2` (stereo partly drawn) [Compound 16f, 1,1′-[(Octane-1,8-diyl)dioxy]bis[(11aS)-7-methoxy-1,2,3,11a-tetrahydro-5H-pyrrolo[2,1-c][1,4]benzodiazepine-5-one]], the EC50 in assay [1] worked out at 1.4 µM. In assay [2] (setting [5]), the IC50 is 0.0045 µM. The same compound showed a GI50 in assay [3] (Homo sapiens) of 0.019 µM.

Regarding `COc1ccc2c(c1)C(=O)N1CCC(OCCCOC3CCN4C(=O)c5cc(OC)ccc5N=C[C@@H]34)[C@@H]1C=N2` (stereo partly drawn) [Compound 16a, 1,1′-[(Propane-1,3-diyl)dioxy]bis[(11aS)-7-methoxy-1,2,3,11a-tetrahydro-5H-pyrrolo[2,1-c][1,4]benzodiazepine-5-one]], the response in assay [1] was half-maximal at 0.05 µM (EC50). Besides, the IC50 in assay [2] (setting [4]) came to 12.8 µM. This compound also came in with a GI50 in assay [3] (Homo sapiens) of 3.16 µM.

Take `COc1ccc2c(c1)N=C[C@H]1C(OCCCCOC3CCN4C(=O)c5ccc(OC)cc5N=C[C@@H]34)CCN1C2=O` (stereo partly drawn) [Compound 9b, 1,1′-[(Butane-1,4-diyl)dioxy]bis[(11aS)-8-methoxy-1,2,3,11a-tetrahydro-5H-pyrrolo[2,1-c][1,4]benzodiazepine-5-one]]: in assay [2] (setting [4]), the IC50 was more than 30 µM. Besides, in assay [3] (Homo sapiens), growth was halved (GI50) at 28.1 µM.

In assay [3] (Homo sapiens, sub-table of 29a-c), `C=C1CN2C(=O)c3cc(OC)ccc3N=C[C@H]2C1OCCCCCCCCOC1C(=C)CN2C(=O)c3cc(OC)ccc3N=C[C@@H]12` (stereo partly drawn) [Compound 29a, 1,1′-[(Octane-1,8-diyl)dioxy]bis[(11aS)-7-methoxy-2-methylene-1,2,3,11a-tetrahydro-5H-pyrrolo[2,1-c][1,4]benzodiazepine-5-one]] gave a GI50 of 0.0138 µM.

In assay [1], `COc1ccc2c(c1)N=C[C@H]1C(OCCCCCCCOC3CCN4C(=O)c5ccc(OC)cc5N=C[C@@H]34)CCN1C2=O` (stereo partly drawn) [Compound 9e, 1,1′-[(Heptane-1,7-diyl)dioxy]bis[(11aS)-8-methoxy-1,2,3,11a-tetrahydro-5H-pyrrolo[2,1-c][1,4]benzodiazepine-5-one]] yielded an EC50 of 20 µM. Also, the IC50 in assay [2] (setting [4]) was more than 30 µM. For the same compound, in assay [3] (Homo sapiens), halving of growth (GI50) required 2.69 µM.

The compound `COc1ccc2c(c1)N=C[C@H]1C(OCCCCCCCCCCOC3CCN4C(=O)c5ccc(OC)cc5N=C[C@@H]34)CCN1C2=O` (stereo partly drawn) [Compound 9h, 1,1′-[(Decane-1,10-diyl)dioxy]bis[(11aS)-8-methoxy-1,2,3,11a-tetrahydro-5H-pyrrolo[2,1-c][1,4]benzodiazepine-5-one]] registered an EC50 in assay [1] of 0.17 µM. Moreover, the IC50 in assay [2] (setting [4]) stood at 16.1 µM. Moreover, in assay [3] (Homo sapiens), it took 1.12 µM to inhibit growth by half (GI50).

Consider `COc1ccc2c(c1)C(=O)N1CCC(OCCCCCCCCCCCOC3CCN4C(=O)c5cc(OC)ccc5N=C[C@@H]34)[C@@H]1C=N2` (stereo partly drawn) [Compound 16i, 1,1′-[(Undecane-1,11-diyl)dioxy]bis[(11aS)-7-methoxy-1,2,3,11a-tetrahydro-5H-pyrrolo[2,1-c][1,4]benzodiazepine-5-one]], for which, in assay [2] (setting [5]), the IC50 was determined as 0.689 µM. This compound yielded a GI50 in assay [3] (Homo sapiens) of 0.22 µM.

Usually EC50 stands for the midpoint of the concentration-response curve. Read a high EC50 as a less potent agent. The IC50 is the midpoint of a concentration-inhibition curve. For orientation: GI50 means the concentration giving 50% growth inhibition. A low value points to greater sensitivity of the cells.
